# In patent US6943190B2, “Method of using pyruvate and/or its derivatives for the treatment of cytokine-mediated inflammatory conditions” (University of Pittsburgh-of the Commonwealth System of …, priority 2001, dated 2005):
# Tested on: Caco-2 human enterocytes
# Assay: Cytomix-induced hyperpermeability of Caco-2 monolayers (FD4 clearance)
# Assay type: cell-based
# Settings: 48 h incubation with cytomix (IFN-γ, IL-1β, TNF-α); both of the highest concentrations; P<0.001
# Method: To test for the effect of ethyl pyruvate on a stabilizing calcium salt solution (REPS) in a cytokine-induced intestinal epithelial hyperpermeability condition, an in vitro model of intestinal epithelial injury due to inflammation, such as might occur in cases of inflammatory bowel disease (i.e., Crohn's disease or ulcerative colitis) was used.
# Exemplary materials and methods include the following, while minor modifications can be made: Caco-2 human enterocytes (10^5 cells/well) were plated on permeable filters in 12-well Transwell bicameral chambers (COSTAR, Corning, N.Y.) and fed biweekly. Permeability studies were carried out using confluent monolayers between 21-28 d after seeding. The permeability probe was FITC-labeled dextran (4400 Da; FD4). A sterile stock solution of FD4 (25 mg/ml) was prepared by dissolving the compound in HEPES-buffered DMEM complete medium (pH 6.8) and passing it through a filter ([…] pore size). For permeability studies, the medium was aspirated from the apical and basolateral sides of the Transwell chambers. FD4 solution (200 μl) was added to the apical compartments. […] (Menconi et al., Am. J. Physiol. (1997) 272:G1007-G1021.) The permeability of monolayers was expressed as a clearance (C), which was calculated as previously described. […]
smiles,measurement,value
CCOC(=O)C(C)=O [ethyl pyruvate],cytomix-induced hyperpermeability of Caco-2 monolayers (FD4 clearance),significantly decreased cytomix-induced hyperpermeability
